Data reported in patent US9220268B2, “Herbicidal benzoxazinones” (BASF SE, priority 2009, dated 2015).

Key:
AMBEL [1] = assay: greenhouse experiment, pre-emergence, mixtures (Example 2, Colby); type: in vivo, Ambrosia artemisiifolia
Excerpt: (§1) The culture containers used were plastic pots containing loamy sand with approximately 3.0% of humus as substrate. The seeds of the test plants were sown separately for each species.
(§2) For the pre-emergence treatment, the active compounds, suspended or emulsified in water, were applied directly after sowing by means of finely distributing nozzles. The containers were irrigated gently to promote germination and growth and subsequently covered with transparent plastic hoods until the plants had rooted. This cover caused uniform germination of the test plants unless this was adversely affected by the active compounds.
(§3) Depending on the species, the plants were kept at 10-25° C. and 20-35° C., respectively. The test period extended over 2 to 4 weeks. During this time, the plants were tended and their response to the individual treatments was evaluated.
(§4) Evaluation was carried out using a scale from 0 to 100. 100 means no emergence of the plants, or complete destruction of at least the above-ground parts, and 0 means no damage or normal course of growth. Good herbicidal activity is given at values of at least 70, and very good herbicidal activity is given at values of at least 85.
(§5) The respective stated components A and B, and if appropriate, C were formulated as a 10% by weight strength emulsion concentrate and, with addition of the amount of solvent system, introduced into the spray liquor used for applying the active compound. In the examples, the solvent used was water.
(§6) The test period extended over 20 and 21 days, respectively. During this time, the plants were tended, and their reaction to the treatment with active compound was monitored.
(§7) In the examples below, using the method of S. R. Colby (1967) “Calculating synergistic and antagonistic responses of herbicide combinations”, Weeds 15, p. 22ff., the value E, which is expected if the activity of the individual active compounds is only additive, was calculated. E=X+Y−(X·Y/100) • where • X=percent activity using active compound A at an application rate a; • Y=percent activity using active compound B at an application rate b; • E=expected activity (in %) by A+B at application rates a+b.
(§8) If the value found experimentally is higher than the value E calculated according to Colby, a synergistic effect is present.

BIDPI = assay: as above; type: in vivo, Bidens pilosa
Excerpt: as §1, §2
(§9) Depending on the species, the plants were kept at 10-25° C. and 20-35° C., respectively. […] During this time, the plants were tended and their response to the individual treatments was evaluated. […]
as §6
(§10) In the examples below, using the method of S. R. Colby (1967) “Calculating synergistic and antagonistic responses of herbicide combinations”, Weeds 15, p. 22ff., the value E, which is expected if the activity of the individual active compounds is only additive, was calculated. […]
as §8

ELEIN = assay: as above; type: in vivo, Eleusine indica
Excerpt: as §1, §2, §9, §6, §10, §8

SORHA = assay: as above; type: in vivo, Sorghum halepense
Excerpt: as §1, §2, §9, §6, §10, §8

BRAPL [2] = assay: greenhouse experiment, post-emergence, mixtures (Example 2, Colby); type: in vivo, Brachiaria plantaginea
Procedure: as §1
(§11) For the post-emergence treatment, the test plants were grown to a plant height of from 3 to 15 cm, depending on the plant habit, and only then treated with the active compounds which had been suspended or emulsified in water. To this end, the test plants were either sown directly and grown in the same containers, or they were first grown separately as seedlings and transplanted into the test containers a few days prior to treatment.
as §3, §4, §5, §6, §10, §8

SETFA [3] = assay: as above; type: in vivo, Setaria faberi
Procedure: as §1, §11, §9, §6, §10, §8

ERBVI [4] = assay: as above; type: in vivo, Eriochloa villosa
Procedure: as §1, §11, §9, §6, §10, §8

SORPHA = assay: as above; type: in vivo, Sorghum halepense
Procedure: as §1, §11, §9, §6, §10, §8

CHEAL = assay: greenhouse experiment, pre-emergence, mixtures (Example 2, Colby); type: in vivo, Chenopodium album
Excerpt: as §1, §2, §3, §4, §5, §6, §7, §8

AMARE = assay: as above; type: in vivo, Amaranthus retroflexus
Excerpt: as §1, §2, §3, §4, §5, §6, §10, §8

ALOMY [5] = assay: greenhouse experiment, post-emergence, mixtures (Example 2, Colby); type: in vivo, Alopercurus myosuroides
Procedure: as §1, §11, §9, §6, §10, §8

ECHCG [6] = assay: as above; type: in vivo, Echinocloa crus-galli
Procedure: as §1, §11, §9, §6, §10, §8

ALOMY [7] = assay: greenhouse experiment, pre-emergence, mixtures (Example 2, Colby); type: in vivo, Alopercurus myosuroides
Excerpt: as §1, §2, §9, §6, §10, §8

POLCO = assay: as above; type: in vivo, Polygonum convolvulus
Excerpt: as §1, §2, §9, §6, §10, §8

ECHCG [8] = assay: as above; type: in vivo, Echinocloa crus-galli
Excerpt: as §1, §2, §9, §6, §10, §8

SETVI = assay: as above; type: in vivo, Setaria viridis
Excerpt: as §1, §2, §9, §6, §10, §8

BRAPL [9] = assay: as above; type: in vivo, Brachiaria plantaginea
Excerpt: as §1, §2, §9, §6, §10, §8

ERBVI [10] = assay: as above; type: in vivo, Eriochloa villosa
Excerpt: as §1, §2, §9, §6, §10, §8

BRAPL [11] = assay: greenhouse experiment, post-emergence treatment (Use Examples); type: in vivo, Brachiaria plantaginea; conditions: post-emergence method; application rate 0.025 kg/ha; scale 0 to 100
Excerpt: (§12) The culture containers used were plastic flowerpots containing loamy sand with approximately 3.0% of humus as the substrate. The seeds of the test plants were sown separately for each species.
(§13) For the post-emergence treatment, the test plants were first grown to a height of 3 to 15 cm, depending on the plant habit, and only then treated with the active ingredients which had been suspended or emulsified in water. For this purpose, the test plants were either sown directly and grown in the same containers, or they were first grown separately as seedlings and transplanted into the test containers a few days prior to treatment.
(§14) Depending on the species, the plants were kept at 10-25° C. or 20-35° C. The test period extended over 2 to 4 weeks. During this time, the plants were tended, and their response to the individual treatments was evaluated.
(§15) Evaluation was carried out using a scale from 0 to 100. 100 means no emergence of the plants, or complete destruction of at least the aerial moieties, and 0 means no damage, or normal course of growth. A good herbicidal activity is given at values of at least 70 and a very good herbicidal activity is given at values of at least 85.

SETFA [12] = assay: as above; type: in vivo, Setaria faberi; conditions: post-emergence method; application rate 0.025 kg/ha; scale 0 to 100
Excerpt: as §12, §13, §14, §15

AMBEL [13] = assay: greenhouse experiment, pre-emergence treatment (Use Examples); type: in vivo, Ambrosia elatior; conditions: pre-emergence method; application rate 0.050 kg/ha; scale 0 to 100
Excerpt: as §12
For the pre-emergence treatment, the active ingredients, which had been suspended or emulsified in water, were applied directly after sowing by means of finely distributing nozzles. The containers were irrigated gently to promote germination and growth and subsequently covered with transparent plastic hoods until the plants had rooted. This cover caused uniform germination of the test plants, unless this has been impaired by the active ingredients.
as §14, §15

CC(C)N(C)S(=O)(=O)NC(=O)c1cc(-n2c(=O)cc(C(F)(F)F)n(C)c2=O)c(F)cc1Cl [B.76, saflufenacil, reference compound]
herbicidal activity against AMBEL found (AMBEL [1]; B.76 6.25 g/ha a.s.): 75% | herbicidal activity against BIDPI found (BIDPI; B.76 6.25 g/ha a.s.): 60% | herbicidal activity against ELEIN found (ELEIN; B.76 6.25 g/ha a.s.): 30% | herbicidal activity against SORHA found (SORHA; B.76 6.25 g/ha a.s.): 0% | herbicidal activity against BRAPL found (BRAPL [2]; B.76 12.5 g/ha a.s.): 30% | herbicidal activity against SETFA found (SETFA [3]; B.76 12.5 g/ha a.s.): 30% | herbicidal activity against ERBVI found (ERBVI [4]; B.76 12.5 g/ha a.s.): 60% | herbicidal activity against SORPHA found (SORPHA; B.76 12.5 g/ha a.s.): 25% | herbicidal activity against CHEAL found (CHEAL; B.76 3.12 g/ha a.s.): 30% | herbicidal activity against AMARE found (AMARE; B.76 3.12 g/ha a.s.): 35%

O=C(O)CNCP(=O)(O)O [B.95, glyphosate, reference compound]
herbicidal activity against BRAPL found (BRAPL [2]; B.95 135 g/ha a.s.): 95% | herbicidal activity against ALOMY found (ALOMY [5]; B.95 135 g/ha a.s.): 80% | herbicidal activity against ECHCG found (ECHCG [6]; B.95 135 g/ha a.s.): 85%

CCC(CC)Nc1c([N+](=O)[O-])cc(C)c(C)c1[N+](=O)[O-] [B.101, pendimethalin, reference compound]
herbicidal activity against ALOMY found (ALOMY [7]; B.101 400 g/ha a.s.): 75% | herbicidal activity against POLCO found (POLCO; B.101 400 g/ha a.s.): 40%

COC[C@H](C)N(C(=O)CCl)c1c(C)csc1C [B.106, dimethenamid-p, reference compound]
herbicidal activity against ECHCG found (ECHCG [8]; B.106 15 g/ha a.s.): 85% | herbicidal activity against SETVI found (SETVI; B.106 15 g/ha a.s.): 70% | herbicidal activity against CHEAL found (CHEAL; B.106 15 g/ha a.s.): 10% | herbicidal activity against AMARE found (AMARE; B.106 15 g/ha a.s.): 75%

Cn1nc(C(F)(F)F)c(CS(=O)(=O)C2=NOC(C)(C)C2)c1OC(F)F [B.116, pyroxasulfone, reference compound]
herbicidal activity against AMBEL found (AMBEL [1]; B.116 6.25 g/ha a.s.): 0% | herbicidal activity against BRAPL found (BRAPL [9]; B.116 6.25 g/ha a.s.): 30% | herbicidal activity against ERBVI found (ERBVI [10]; B.116 6.25 g/ha a.s.): 45%

C#CCN1C(=O)C(F)(F)Oc2cc(F)c(-n3c(=O)n(C)c(=S)n(C)c3=O)cc21 [I.a.35, 1,5-dimethyl-6-thioxo-3-(2,2,7-trifluoro-3-oxo-4-(prop-2-ynyl)-3,4-dihydro-2H-benzo [b][1,4]oxazin-6-yl)-1,3,5-triazinane-2,4-dione]
herbicidal activity against BRAPL (BRAPL [11]): very good (a very good herbicidal activity is given at values of at least 85) | herbicidal activity against SETFA (SETFA [12]): very good (a very good herbicidal activity is given at values of at least 85) | herbicidal activity against AMBEL (AMBEL [13]): very good (a very good herbicidal activity is given at values of at least 85) | herbicidal activity against AMBEL found (AMBEL [1]; I.a.35 12.5 g/ha a.s.): 60% | herbicidal activity against AMBEL found (AMBEL [1]; I.a.35 25 g/ha a.s.): 75% | herbicidal activity against BIDPI found (BIDPI; I.a.35 12.5 g/ha a.s.): 30% | herbicidal activity against ELEIN found (ELEIN; I.a.35 12.5 g/ha a.s.): 45% | herbicidal activity against SORHA found (SORHA; I.a.35 12.5 g/ha a.s.): 60% | herbicidal activity against BRAPL found (BRAPL [2]; I.a.35 12.5 g/ha a.s.): 65% | herbicidal activity against SETFA found (SETFA [3]; I.a.35 12.5 g/ha a.s.): 75% | herbicidal activity against ERBVI found (ERBVI [4]; I.a.35 12.5 g/ha a.s.): 70% | herbicidal activity against SORPHA found (SORPHA; I.a.35 12.5 g/ha a.s.): 80% | herbicidal activity against ALOMY found (ALOMY [5]; I.a.35 12.5 g/ha a.s.): 30% | herbicidal activity against ECHCG found (ECHCG [6]; I.a.35 12.5 g/ha a.s.): 75% | herbicidal activity against ALOMY found (ALOMY [7]; I.a.35 25 g/ha a.s.): 65% | herbicidal activity against POLCO found (POLCO; I.a.35 25 g/ha a.s.): 65% | herbicidal activity against ECHCG found (ECHCG [8]; I.a.35 12.5 g/ha a.s.): 30% | herbicidal activity against SETVI found (SETVI; I.a.35 12.5 g/ha a.s.): 90% | herbicidal activity against CHEAL found (CHEAL; I.a.35 3.12 g/ha a.s.): 85% | herbicidal activity against CHEAL found (CHEAL; I.a.35 6.25 g/ha a.s.): 85% | herbicidal activity against BRAPL found (BRAPL [9]; I.a.35 25 g/ha a.s.): 50% | herbicidal activity against ERBVI found (ERBVI [10]; I.a.35 25 g/ha a.s.): 55% | herbicidal activity against AMARE found (AMARE; I.a.35 3.12 g/ha a.s.): 70%
